Experimental data from patent publication EP4818172A1, “ASCORBIC ACID DERIVATIVES AND COSMETIC CONTAINING SAME” (Seiwa Kasei Co., Ltd., priority 2023, dated 2025).

Legend:
[1] = test system: Normal human dermal fibroblasts (NHDF); test: Hyaluronic acid production promoting effect (ELISA of supernatant); format: cell-based; conditions: sample at 10 mM or less in serum-free D-MEM, cultured 48 hours, % of control group (100%), N=3
Method: Normal human dermal fibroblasts (NHDF) were prepared in D-MEM containing 5% (v/v) fetal bovine serum to a cell density of 2.5 × 10^4 cells/well, and then pre-incubated on a 96-well plate for 24 hours. After removing the medium, samples prepared in serum-free D-MEM were added to each well and cultured for 48 hours. After the culture was completed, the amount of hyaluronic acid in the supernatant was quantified by ELISA. Measurements were performed in triplicate (N=3).
(§1) The amount of hyaluronic acid produced when the sample was measured at a concentration of 10 mM or less was compared with that of the control group, and the results (% values when the control group is set to 100%) are shown in Tables 18 to 20 based on the following criteria. • <100%: ± • 100-120%: + • 120%<: ++ [Table 18]

[2] = test system: Normal human epidermal keratinocytes; test: Antioxidant effect: ROS production inhibition after H2O2 (DCFHDA probe); format: cell-based; conditions: sample at 10 mM or less, 24 hours, then 0.2 mM H2O2 for 2 hours, N=4
Method: Normal human epidermal keratinocytes were seeded onto a 96-well plate using KG2 medium at a cell density of 2.0 × 10^4 cells/well. After 24 hours of pre-incubation, samples adjusted to a predetermined concentration in KG2 medium were added to each well. After 24 hours of incubation, the medium was removed, followed by washing with HBSS(-) and the incorporation of the ROS-reactive fluorescent probe DCFHDA for 30 minutes. The cells were again washed with HBSS(-), treated with 0.2 mM H2O2, and incubated for 2 hours. The fluorescence intensity was measured, and the amount of ROS produced per unit protein was calculated by dividing the fluorescence intensity by the amount of protein quantified by the BCA method, resulting in an analytical value of 1. Furthermore, the amount of ROS production calculated without adding the sample adjusted to a predetermined concentration using the above test method was set to analytical value 2; and the amount of ROS production calculated without adding the sample or 0.2 mM H2O2 was set to analytical value 3.
ROS production inhibition rate (%) was calculated using the following formula. The higher the ROS production inhibition rate, the greater the antioxidant effect can be evaluated to be.
ROS production inhibition rate (%) = [(analysis value 2) - (analysis value 1)] / [(analysis value 2) - (analysis value 3)] × 100
The ROS production inhibition rate when the sample was measured at a concentration of 10 mM or less was evaluated as follows. Note that the measurement was performed in N=4. • <20%: + • 20-40%: ++ • 40%<: +++ [Table 21]

[3] = Stability test -1: residual rate of 1% aqueous solutions at pH 3 to 9 on storage; format: physicochemical; conditions: 1% aqueous solution
[4] = Stability test -1: odor and coloration scored by 10 panelists; format: physicochemical; conditions: Test Example 1, aqueous solution, total score of 10 panelists
Method: For each of the samples of Synthesis Examples 1 to 6, 1% aqueous solutions were adjusted to pH 3, 5, 7, 8, and 9 with a dilute potassium hydroxide aqueous solution, and then placed in 50 mL screw tubes and • 2: Color changes compared to immediately after preparation. • 1: Strongly colored compared to immediately after preparation. Based on the results of the above evaluation, the following classification was made: • ○: Total score of 10 panelists is 25 or more • △: Total score of 10 panelists is 16-24 • ×: The total score of 10 panelists is 15 or less [Table 10]

[5] = test system: Normal human dermal fibroblasts; test: Collagen production promoting effect (ELISA of free collagen in supernatant); format: cell-based; conditions: sample at 10 mM or less, cultured 48 hours, % of control group (100%), N=3
Method: Normal human dermal fibroblasts were prepared in D-MEM containing 5% (v/v) fetal bovine serum to a cell density of 2.5 × 10^4 cell s /well, and then pre-incubated for 24 hours on a 96-well plate. After removing the medium, samples prepared to a predetermined concentration in D-MEM containing 5% (v/v) fetal bovine serum were added to each well and cultured for 48 hours. After the culture was completed, the amount of free collagen in the supernatant was quantified by ELISA. Measurements were performed in triplicate (N=3).
as §1, with “collagen” for “hyaluronic acid”, “was” for “is”, “Table 17” for “Tables 18 to 20”, “100-140%:” for “100-120%:”, “140%<:” for “120%<:”, “17]” for “18]”

SMILES	Residual Rate After 2 weeks ([3]; pH3, stored at 50°C)	Residual Rate After 4 weeks ([3]; pH3, stored at 50°C)	Residual Rate After 2 weeks ([3]; pH5, stored at 50°C)	Residual Rate After 4 weeks ([3]; pH5, stored at 50°C)	Residual Rate After 2 weeks ([3]; pH7, stored at 50°C)	Residual Rate After 4 weeks ([3]; pH7, stored at 50°C)	Residual Rate After 2 weeks ([3]; pH8, stored at 50°C)	Residual Rate After 4 weeks ([3]; pH8, stored at 50°C)	Residual Rate After 2 weeks ([3]; pH9, stored at 50°C)	Residual Rate After 4 weeks ([3]; pH9, stored at 50°C)	Hyaluronic acid production-promoting effect [1]	Antioxidant effect (ROS production inhibition rate) [2]	Coloration After 2 weeks [4]	Odor After 2 weeks [4]	Coloration After 4 weeks [4]	Odor After 4 weeks [4]	Collagen production-promoting effect [5]
O=C1OC2C(O)COC23OCCCCOC13 (stereo not shown) [synthesis Example 33, 4-hydroxy-2,6,9,14-tetraoxatricyclo [6.6.0.0^1.5] tetradecan-7-one]	–	–	–	–	–	–	–	–	–	–	+ (100-120%)	++ (20-40%)	–	–	–	–	–
O=C1OC2C(O)COC23OCCCOC13 (stereo not shown) [synthesis Example 34, 4-hydroxy-2,6,9,13-tetraoxatricyclo [6.5.0.0^1.5] tridecan-7-one]	–	–	–	–	–	–	–	–	–	–	+ (100-120%)	++ (20-40%)	–	–	–	–	–
O=C1OC(C(O)CO)C2=C1OCCCCO2 (stereo not shown) [synthesis example 3, 2,3-O-(1,4-butanediyl) ascorbic acid]	⊚	⊚	⊚	⊚	⊚	⊚	⊚	○	○	Δ	+ (100-120%)	–	○ (Total score of 10 panelists is 25 or more)	○ (Total score of 10 panelists is 25 or more)	○ (Total score of 10 panelists is 25 or more)	○ (Total score of 10 panelists is 25 or more)	+ (100-140%)
O=C1OC(C(O)CO)C2=C1OCC(O)CO2 (stereo not shown) [synthesis example 4, 2,3-O-(2-hydroxypropane-1,3-diyl) ascorbic acid]	⊚	⊚	⊚	⊚	○	○	○	Δ	○	Δ	++ (120%<)	–	○ (Total score of 10 panelists is 25 or more)	○ (Total score of 10 panelists is 25 or more)	○ (Total score of 10 panelists is 25 or more)	○ (Total score of 10 panelists is 25 or more)	+ (100-140%)

Second part, led by results:

Residual Rate After 2 weeks ([3]; pH3, stored at 50°C)	Residual Rate After 4 weeks ([3]; pH3, stored at 50°C)	Residual Rate After 2 weeks ([3]; pH5, stored at 50°C)	Residual Rate After 4 weeks ([3]; pH5, stored at 50°C)	Residual Rate After 2 weeks ([3]; pH7, stored at 50°C)	Residual Rate After 4 weeks ([3]; pH7, stored at 50°C)	Residual Rate After 2 weeks ([3]; pH8, stored at 50°C)	Residual Rate After 4 weeks ([3]; pH8, stored at 50°C)	Residual Rate After 2 weeks ([3]; pH9, stored at 50°C)	Residual Rate After 4 weeks ([3]; pH9, stored at 50°C)	SMILES	Hyaluronic acid production-promoting effect [1]	Antioxidant effect (ROS production inhibition rate) [2]	Coloration After 2 weeks [4]	Odor After 2 weeks [4]	Coloration After 4 weeks [4]	Odor After 4 weeks [4]	Collagen production-promoting effect [5]
⊚	⊚	⊚	⊚	○	Δ	Δ	×	×	×	O=C1OC(C(O)CO)C2=C1OCCO2 (stereo not shown) [synthesis example 1, 2,3-O-(1,2-ethanediyl) ascorbic acid]	+ (100-120%)	–	○ (Total score of 10 panelists is 25 or more)	○ (Total score of 10 panelists is 25 or more)	Δ	○ (Total score of 10 panelists is 25 or more)	+ (100-140%)
⊚	⊚	⊚	⊚	⊚	⊚	⊚	○	○	Δ	O=C1OC(C(O)CO)C2=C1OCCCO2 (stereo not shown) [synthesis example 2, 2,3-O-(1,3-propanediyl) ascorbic acid]	++ (120%<)	–	○ (Total score of 10 panelists is 25 or more)	○ (Total score of 10 panelists is 25 or more)	○ (Total score of 10 panelists is 25 or more)	Δ	++ (140%<)
⊚	⊚	⊚	⊚	○	Δ	○	Δ	○	Δ	O=C1OC(C(O)CO)C2=C1OC(CO)CO2 (stereo not shown) [synthesis example 5, 2,3-O-(1-hydroxymethyl-1,2-ethanediyl) ascorbic acid]	+ (100-120%)	–	○ (Total score of 10 panelists is 25 or more)	○ (Total score of 10 panelists is 25 or more)	○ (Total score of 10 panelists is 25 or more)	○ (Total score of 10 panelists is 25 or more)	+ (100-140%)
⊚	⊚	⊚	⊚	○	○	○	Δ	○	Δ	O=C1OC(C(O)CO)C2=C1OCC1(COC1)CO2 (stereo not shown) [synthesis example 6, 2,3-O-(3,3-dimethyleneoxetane) ascorbic acid]	++ (120%<)	–	○ (Total score of 10 panelists is 25 or more)	○ (Total score of 10 panelists is 25 or more)	○ (Total score of 10 panelists is 25 or more)	○ (Total score of 10 panelists is 25 or more)	++ (140%<)
